In ChEMBL document CHEMBL1212831, “Discovery of N-[(2S)-5-(6-fluoro-3-pyridinyl)-2,3-dihydro-1H-inden-2-yl]-2-propanesulfonamide, a novel clinical AMPA receptor positive modulator” (J Med Chem, 2010):
Calls of active or inactive are those of the source. No cut-off for these calls is given here.

Legend:
Cytochrome P450 2C19 = Cytochrome P450 2C19 (Homo sapiens, UniProt P33261)
Description: Inhibition of human CYP2C19 after 10 mins

Cytochrome P450 2C9 = Cytochrome P450 2C9 (Homo sapiens, UniProt P11712)
Description: Inhibition of human CYP2C9 after 10 mins

Glutamate receptor 2 = Glutamate receptor 2 (Homo sapiens, UniProt P42262)
Chain of Glutamate receptor 2 (P42262 whole entry): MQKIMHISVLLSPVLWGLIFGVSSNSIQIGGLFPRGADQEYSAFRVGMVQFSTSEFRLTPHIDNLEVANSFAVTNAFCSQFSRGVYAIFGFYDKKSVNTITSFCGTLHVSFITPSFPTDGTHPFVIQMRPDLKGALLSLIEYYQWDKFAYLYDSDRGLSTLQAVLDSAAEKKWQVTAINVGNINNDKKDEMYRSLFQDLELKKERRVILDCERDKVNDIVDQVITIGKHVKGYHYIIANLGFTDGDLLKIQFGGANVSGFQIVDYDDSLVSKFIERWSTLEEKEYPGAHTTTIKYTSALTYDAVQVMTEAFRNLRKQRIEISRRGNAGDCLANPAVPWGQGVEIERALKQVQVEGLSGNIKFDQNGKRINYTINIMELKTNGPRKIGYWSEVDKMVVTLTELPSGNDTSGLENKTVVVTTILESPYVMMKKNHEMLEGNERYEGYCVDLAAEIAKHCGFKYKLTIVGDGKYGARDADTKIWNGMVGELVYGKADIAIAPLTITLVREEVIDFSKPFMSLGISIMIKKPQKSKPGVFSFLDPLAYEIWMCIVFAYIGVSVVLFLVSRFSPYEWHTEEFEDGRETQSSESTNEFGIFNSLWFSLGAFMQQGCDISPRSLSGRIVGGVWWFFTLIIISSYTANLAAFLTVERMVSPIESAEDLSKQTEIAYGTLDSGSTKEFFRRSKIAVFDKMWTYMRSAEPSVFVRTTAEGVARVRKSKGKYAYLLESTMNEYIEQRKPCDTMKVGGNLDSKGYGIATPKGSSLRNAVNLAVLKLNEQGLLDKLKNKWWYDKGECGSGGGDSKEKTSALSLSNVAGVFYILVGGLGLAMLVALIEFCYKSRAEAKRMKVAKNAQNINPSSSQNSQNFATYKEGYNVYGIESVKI
Description: Activation of human GluR2 flip isoform expressed in HEK293 cells assessed as increase of glutamate-induced intracellular calcium level by FLIPR assay

Cytochrome P450 2D6 = Cytochrome P450 2D6 (Homo sapiens, UniProt P10635)
Chain of Cytochrome P450 2D6 (P10635 whole entry): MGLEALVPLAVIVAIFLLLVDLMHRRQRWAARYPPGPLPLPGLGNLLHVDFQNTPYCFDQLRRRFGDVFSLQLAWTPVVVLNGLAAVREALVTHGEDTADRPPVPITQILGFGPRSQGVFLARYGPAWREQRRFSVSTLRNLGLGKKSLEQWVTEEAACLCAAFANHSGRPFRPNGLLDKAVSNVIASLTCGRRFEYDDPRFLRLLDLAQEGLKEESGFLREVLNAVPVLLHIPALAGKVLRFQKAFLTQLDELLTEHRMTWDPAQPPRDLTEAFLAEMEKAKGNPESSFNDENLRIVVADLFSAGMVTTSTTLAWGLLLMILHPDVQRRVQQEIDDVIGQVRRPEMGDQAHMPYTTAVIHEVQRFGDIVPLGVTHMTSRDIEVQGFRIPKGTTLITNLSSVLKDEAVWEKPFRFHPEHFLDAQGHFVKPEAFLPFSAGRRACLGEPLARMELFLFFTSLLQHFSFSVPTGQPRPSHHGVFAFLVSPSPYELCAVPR
Description: Inhibition of human CYP2D6 after 10 mins

Cytochrome P450 1A2 = molecular target: T1, Cytochrome P450 1A2 (Homo sapiens, UniProt P05177)
T1 sequence (P05177 whole entry): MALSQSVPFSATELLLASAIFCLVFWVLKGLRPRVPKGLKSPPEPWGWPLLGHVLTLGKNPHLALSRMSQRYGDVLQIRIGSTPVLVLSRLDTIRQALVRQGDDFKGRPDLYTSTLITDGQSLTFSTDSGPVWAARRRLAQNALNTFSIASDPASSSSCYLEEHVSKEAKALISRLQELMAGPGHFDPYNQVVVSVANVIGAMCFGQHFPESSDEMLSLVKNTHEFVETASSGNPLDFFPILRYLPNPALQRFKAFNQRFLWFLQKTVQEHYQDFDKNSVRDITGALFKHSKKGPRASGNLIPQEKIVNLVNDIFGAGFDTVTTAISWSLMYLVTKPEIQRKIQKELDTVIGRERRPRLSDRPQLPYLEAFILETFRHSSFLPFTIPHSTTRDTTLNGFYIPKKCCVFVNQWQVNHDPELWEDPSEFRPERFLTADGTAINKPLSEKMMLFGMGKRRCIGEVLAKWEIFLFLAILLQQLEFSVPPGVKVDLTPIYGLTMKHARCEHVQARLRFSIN
Description: Inhibition of human CYP1A2 after 10 mins

Liver microsomes [1] = tested on: Liver microsomes
Liver microsomes [2] = tested on: Liver microsomes; remark: listed apart in the source
Cytochrome P450 3A4 = Cytochrome P450 3A4 (Homo sapiens, UniProt P08684)
Chain of Cytochrome P450 3A4 (P08684 whole entry): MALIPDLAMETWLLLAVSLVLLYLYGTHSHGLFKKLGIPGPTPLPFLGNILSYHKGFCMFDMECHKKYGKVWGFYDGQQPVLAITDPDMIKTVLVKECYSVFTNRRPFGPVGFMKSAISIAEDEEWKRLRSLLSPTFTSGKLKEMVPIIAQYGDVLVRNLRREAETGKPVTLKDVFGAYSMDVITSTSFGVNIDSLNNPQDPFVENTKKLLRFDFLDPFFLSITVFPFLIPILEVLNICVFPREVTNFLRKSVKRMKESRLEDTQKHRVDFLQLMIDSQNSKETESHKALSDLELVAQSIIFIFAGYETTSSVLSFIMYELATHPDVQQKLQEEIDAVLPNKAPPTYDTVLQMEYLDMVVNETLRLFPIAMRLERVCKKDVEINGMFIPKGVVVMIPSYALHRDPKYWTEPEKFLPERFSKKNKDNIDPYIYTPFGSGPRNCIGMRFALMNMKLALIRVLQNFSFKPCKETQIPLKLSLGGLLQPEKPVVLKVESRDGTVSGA
Description: Inhibition of human CYP3A4 after 10 mins

in vivo = settings: rat, brain/blood
Description: Ratio of brain AUC (0 to t) to blood AUC (0 to t) in rat

[3] = AUC (0 to t) in rat; format: ADME, organism-based; settings: plasma
[4] = Plasma protein binding in rat at 1 ug/ml after 6 hrs by equilibrium dialysis method; format: ADME, cell-free; settings: read-out: PPB (converted)
MDR1 (human) = assay: in vitro; settings: dog, MDCK-MDR1
Description: Efflux ratio of permeability from basolateral to apical over apical to basolateral side of MDCK2 cells over expressing human MDR1

[5] = Cmax in Sprague-Dawley rat at 3 mg/kg, po; format: ADME, organism-based; parameters: dose 3 mg/kg, route oral; settings: in vivo
Blood = assay: Drug level in po dosed Lister Hooded rat blood; format: ADME, organism-based; settings: in vivo
[6] = Oral bioavailability in Sprague-Dawley rat at 3 mg/kg; format: ADME, organism-based; settings: in vivo
Rattus norvegicus [7] = assay: Antiamnesic activity in po dosed assessed as inhibition of amnesic deficit by step-down passive avoidance test; format: functional, organism-based; settings: Wistar
[8] = Volume of distribution at steady state in Sprague-Dawley rat at 1 mg/kg, iv and 3 mg/kg, po; format: ADME, organism-based; settings: in vivo, read-out: Vdss
Brain [9] = assay: Drug level in po dosed Lister Hooded rat brain assessed per gram of tissue; format: ADME, organism-based; settings: in vivo
Rattus norvegicus [10] = assay: Antiamnesic activity in po dosed assessed as inhibition of Scopolamine-induced amnesic deficit administered 3 hrs before Scopolamine challenge by step-down passive avoidance test; format: functional, organism-based; settings: Wistar
[11] = Half life in Sprague-Dawley rat at 1 mg/kg, iv and 3 mg/kg, po; format: ADME, organism-based; settings: in vivo
[12] = Tmax in Sprague-Dawley rat at 3 mg/kg, po; format: ADME, organism-based; parameters: dose 3 mg/kg, route oral; settings: in vivo
[13] = Blood clearance in Sprague-Dawley rat at 1 mg/kg, iv and 3 mg/kg, po; format: ADME, organism-based
Brain [14] = assay: Brain tissue binding in rat at 1 ug/ml after 6 hrs by equilibrium dialysis method; format: ADME, tissue-based
Rattus norvegicus [15] = assay: Cognitive enhancing effect in po dosed Lister Hooded rat assessed as reversal of 24 hrs delay-induced retention deficit behavior by novel object recognition assay; format: functional; settings: read-out: MED

Chain of Cytochrome P450 2C9 (P11712 whole entry): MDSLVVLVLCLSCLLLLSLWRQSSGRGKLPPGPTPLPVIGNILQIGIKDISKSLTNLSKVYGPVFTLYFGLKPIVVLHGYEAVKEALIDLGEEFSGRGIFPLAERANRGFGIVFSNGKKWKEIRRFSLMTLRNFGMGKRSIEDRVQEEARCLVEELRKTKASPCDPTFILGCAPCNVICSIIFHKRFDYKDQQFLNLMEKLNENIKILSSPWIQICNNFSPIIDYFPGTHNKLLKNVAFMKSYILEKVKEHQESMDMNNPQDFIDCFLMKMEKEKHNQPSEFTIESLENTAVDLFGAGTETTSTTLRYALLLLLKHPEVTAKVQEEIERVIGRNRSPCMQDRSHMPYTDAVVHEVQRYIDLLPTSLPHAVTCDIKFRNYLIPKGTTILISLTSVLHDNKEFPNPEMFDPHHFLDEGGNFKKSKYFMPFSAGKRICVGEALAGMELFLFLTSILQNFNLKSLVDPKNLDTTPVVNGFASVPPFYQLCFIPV
Chain of Cytochrome P450 2C19 (P33261 whole entry): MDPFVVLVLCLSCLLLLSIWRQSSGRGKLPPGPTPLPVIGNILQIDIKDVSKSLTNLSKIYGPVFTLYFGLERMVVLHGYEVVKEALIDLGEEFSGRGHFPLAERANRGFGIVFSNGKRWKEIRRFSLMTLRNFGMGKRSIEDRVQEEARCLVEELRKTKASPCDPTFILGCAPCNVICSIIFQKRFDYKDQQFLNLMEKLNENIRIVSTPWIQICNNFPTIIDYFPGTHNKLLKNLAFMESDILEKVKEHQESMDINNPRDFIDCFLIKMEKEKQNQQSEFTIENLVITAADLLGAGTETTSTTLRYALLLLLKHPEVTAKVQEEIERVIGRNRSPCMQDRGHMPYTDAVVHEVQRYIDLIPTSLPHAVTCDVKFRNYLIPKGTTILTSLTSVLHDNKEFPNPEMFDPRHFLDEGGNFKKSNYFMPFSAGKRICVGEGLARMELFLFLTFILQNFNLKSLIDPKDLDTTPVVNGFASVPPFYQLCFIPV
Description for physchem: Dissociation constant, pKa of the compound

Compound	IC50 (Cytochrome P450 2C19) [µM]	IC50 (Cytochrome P450 2C9) [µM]	EC50 (Glutamate receptor 2) [µM]	IC50 (Cytochrome P450 2D6) [µM]	pKa (physchem)	IC50 (Cytochrome P450 1A2) [µM]	IC50 (Liver microsomes [1]) [µM]	IC50 (Liver microsomes [2]) [µM]	IC50 (Cytochrome P450 3A4) [µM]	other results
Cc1ccc(-c2ccc3c(c2)CC(NS(=O)(=O)C(C)C)C3)nc1 (stereo unspecified)	> 10	> 10	3.16	> 10	4.9	> 10	0.8	7.3	> 10	–
CC(C)S(=O)(=O)NC1Cc2ccc(-c3cccc(CN4CCCC4=O)c3)cc2C1 (stereo unspecified)	–	–	12.6	–	–	–	–	–	–	Kp (in vivo): 0.4; AUC(0-t) [3]: 36 ng·h/mL; fraction unbound at 6 h, 1 ug/ml [4]: 0.024
Cc1ccc(-c2ccc3c(c2)CC(NS(=O)(=O)C(C)C)C3)cn1 (stereo unspecified)	> 10	> 10	3.16	> 10	5.7	> 10	0.7	2	> 10	Kp (in vivo): 1.4
CC(C)S(=O)(=O)NC1Cc2ccc(-c3cccc(NS(C)(=O)=O)c3)cc2C1 (stereo unspecified)	–	–	0.794	–	–	–	–	–	–	Kp (in vivo): 0.1; efflux ratio (MDR1 (human)): 5.8; AUC(0-t) [3]: 1130 ng·h/mL; fraction unbound at 6 h, 1 ug/ml [4]: 0.041
CC(C)S(=O)(=O)NC1Cc2ccc(-c3ccc(Cl)cn3)cc2C1 (stereo unspecified)	> 10	> 10	7.94	> 10	–	> 10	< 0.5	< 0.8	> 10	–
CC(C)S(=O)(=O)NC[C@H](C)c1ccc(NC(=O)c2cc(F)cc(F)c2)cc1	–	–	0.398	–	–	–	–	–	–	–
CC(C)S(=O)(=O)NC1Cc2ccc(-c3cccc(C#N)c3)cc2C1 (stereo unspecified)	–	–	> 50.1	–	–	–	–	–	–	–
CC(C)S(=O)(=O)NC1Cc2ccc(-c3ccc(F)cn3)cc2C1 (stereo unspecified)	> 10	> 10	6.31	> 10	2.7	> 10	0.5	0.6	> 10	–
CC(C)C(=O)Nc1cccc(-c2ccc3c(c2)CC(NS(=O)(=O)C(C)C)C3)c1 (stereo unspecified)	–	–	> 50.1	–	–	–	–	–	–	–
CC(C)S(=O)(=O)NC1Cc2ccc(-c3cncc(C#N)c3)cc2C1 (stereo unspecified)	> 10	> 10	63.1	> 10	–	> 10	0.7	< 0.5	> 10	–
Cc1ccncc1-c1ccc2c(c1)CC(NS(=O)(=O)C(C)C)C2 (stereo unspecified)	> 10	> 10	20	> 10	5.8	> 10	1.4	4.5	> 9	–
CC(C)S(=O)(=O)NC1Cc2ccc(-c3cccc(S(=O)(=O)N(C)C)c3)cc2C1 (stereo unspecified)	–	–	7.94	–	–	–	–	–	–	–
CC(C)S(=O)(=O)N[C@@H]1Cc2ccc(-c3ccc(F)nc3)cc2C1	–	–	–	> 10	–	–	–	–	–	–
CC(=O)Cc1cccc(-c2ccc3c(c2)CC(NS(=O)(=O)C(C)C)C3)c1 (stereo unspecified)	–	–	6.31	–	–	–	–	–	–	–
CC(C)S(=O)(=O)NC1Cc2ccc(-c3ccc(F)nc3)cc2C1 (stereo unspecified)	> 10	> 10	–	> 10	–	> 10	1.7	1.1	> 10	–
CC(C)S(=O)(=O)N[C@H]1Cc2ccc(-c3ccc(F)cn3)cc2C1	> 10	> 10	2	> 10	2.7	> 10	< 0.5	1.6	> 10	Cmax [5]: 436 ng/mL; Drug uptake (Blood): 37 ng/mL; Kp (in vivo): 1.4; bioavailability [6]: 72%; efflux ratio (MDR1 (human)): 1.1; inhibition (Rattus norvegicus [7]): inactive; Vd [8]: 2.2 L/kg; Drug uptake (Brain [9]): 70 ng/g; Activity (Rattus norvegicus [10]): Dose-dependent effect; fraction unbound at 6 h, 1 ug/ml [4]: 0.097; half-life [11]: 60 min; Tmax [12]: 30 min; clearance [13]: 24 mL/min/kg; Activity (Brain [14]): 97.9%; minimal effective dose (Rattus norvegicus [15]): 0.3 mg/kg
Cc1cccnc1-c1ccc2c(c1)CC(NS(=O)(=O)C(C)C)C2 (stereo unspecified)	> 10	> 10	20	> 10	4.9	> 10	1.3	14	> 10	–
CC(=O)c1cccc(-c2ccc3c(c2)CC(NS(=O)(=O)C(C)C)C3)c1 (stereo unspecified)	–	–	> 50.1	–	–	–	–	–	–	–
CC(C)S(=O)(=O)NC1Cc2ccc(-c3cccnc3)cc2C1 (stereo unspecified)	> 10	> 10	15.8	> 10	5.1	0.6	< 0.5	2.1	> 10	–
CC(C)S(=O)(=O)NC1Cc2ccc(-c3cccc(CN4CCCS4(=O)=O)c3)cc2C1 (stereo unspecified)	–	–	0.398	–	–	–	–	–	–	fraction unbound at 6 h, 1 ug/ml [4]: 0.033
CC(=O)Nc1cccc(-c2ccc3c(c2)CC(NS(=O)(=O)C(C)C)C3)c1 (stereo unspecified)	–	–	20	–	–	–	–	–	–	fraction unbound at 6 h, 1 ug/ml [4]: 0.051
CCS(=O)(=O)Nc1cccc(-c2ccc3c(c2)CC(NS(=O)(=O)C(C)C)C3)c1 (stereo unspecified)	–	–	2.51	–	–	–	–	–	–	–
CC(C)S(=O)(=O)NC1Cc2ccc(-c3cccnc3F)cc2C1 (stereo unspecified)	9	> 10	15.8	> 10	–	> 10	2.1	2.5	> 10	Kp (in vivo): 1.5
CC(C)S(=O)(=O)NC1Cc2ccc(-c3cccc(N(C)S(C)(=O)=O)c3)cc2C1 (stereo unspecified)	–	–	1.26	–	–	–	–	–	–	Kp (in vivo): 0.4; efflux ratio (MDR1 (human)): 3.2; AUC(0-t) [3]: 161 ng·h/mL; fraction unbound at 6 h, 1 ug/ml [4]: 0.036
Cc1ccc(-c2ccc3c(c2)C[C@@H](NS(=O)(=O)C(C)C)C3)cn1	> 10	> 10	2	> 10	5.8	> 10	< 0.6	3.5	> 10	Cmax [5]: 116 ng/mL; Kp (in vivo): 1.3; bioavailability [6]: 25%; efflux ratio (MDR1 (human)): 0.9; Vd [8]: 2.4 L/kg; fraction unbound at 6 h, 1 ug/ml [4]: 0.078; half-life [11]: 36 min; Tmax [12]: 60 min; clearance [13]: 55 mL/min/kg; Activity (Brain [14]): 96.7%
